Source: ChEMBL document CHEMBL2401710, “Design, synthesis and structure-activity relationships of zwitterionic spirocyclic compounds as potent CCR1 antagonists” (Bioorg Med Chem Lett, 2013)

Test: Antiplatelet activity in human platelet-rich plasma assessed as ADP-induced platelet aggregation at 10 uM relative to control
Assay type: functional
Settings: not given

SMILES	Activity
CC(C)(C)c1ccccc1Oc1ncccc1Nc1nc(C(F)(F)F)c(C#N)s1	101%
CC(C)(C)c1ccccc1Oc1ncccc1Nc1ncc(-c2ccccc2)s1	87%
COc1ccc(-c2sc(Nc3cccnc3Oc3ccccc3C(C)(C)C)nc2C(F)(F)F)cc1	30%
CC(C)(C)c1ccccc1Oc1ncccc1Nc1nc(C(F)(F)F)c(-c2ccc(OC(F)(F)F)cc2)s1	85%
Cc1sc(Nc2cccnc2Oc2ccccc2C(C)(C)C)nc1C(F)(F)F	96%
Cc1noc(-c2sc(Nc3cccnc3Oc3ccccc3C(C)(C)C)nc2C(F)(F)F)n1	56%
CN(C)C(=O)c1nc(Nc2cccnc2Oc2ccccc2C(C)(C)C)sc1-c1ccccc1	100%
Cc1ccc(-c2sc(Nc3cccnc3Oc3ccccc3C(C)(C)C)nc2C(F)(F)F)cc1	32%
CC(C)(C)c1ccccc1Oc1ncccc1Nc1nc(C(F)(F)F)c(-c2ccc(C#N)cc2)s1	79%
CCc1nc(Nc2cccnc2Oc2ccccc2C(C)(C)C)sc1-c1ccccc1	78%
Cc1ccccc1-c1sc(Nc2cccnc2Oc2ccccc2C(C)(C)C)nc1C(F)(F)F	54%
CC(C)(C)c1ccccc1Oc1ncccc1Nc1nc(C(C)(C)C)c(-c2ccccc2)s1	86%
COc1cccc(-c2sc(Nc3cccnc3Oc3ccccc3C(C)(C)C)nc2C(F)(F)F)c1	41%
CC(C)(C)c1ccccc1Oc1ncccc1Nc1nc(C(C)(C)CC(=O)O)c(-c2ccccc2)s1	89%
CC(C)(C)c1ccccc1Oc1ncccc1Nc1nc(C(F)(F)F)c(-c2ccccc2)s1	61%
CC(C)(C)c1ccccc1Oc1ncccc1Nc1nc(C(F)(F)F)c(-c2ccccc2O)s1	99%
CCOC(=O)c1sc(Nc2cccnc2Oc2ccccc2C(C)(C)C)nc1C(F)(F)F	50%
CC(C)(C)c1ccccc1Oc1ncccc1Nc1nc(C(F)(F)F)c(-c2cccc(O)c2)s1	98%
CN(C)CC(C)(C)COc1cccc(-c2sc(Nc3cccnc3Oc3ccccc3C(C)(C)C)nc2C(F)(F)F)c1	17%
CC(C)(C)c1ccccc1Oc1ncccc1Nc1nc(C(F)(F)F)c(-c2ccccc2F)s1	41%

Test: Half life in rat at 5 mg/kg, iv
Assay type: ADME, organism-based
Set-up: dose 5 mg/kg, route intravenous
Settings: in vivo

SMILES	half-life
CN(C)CC(C)(C)COc1cccc(-c2sc(Nc3cccnc3Oc3ccccc3C(C)(C)C)nc2C(F)(F)F)c1	2.1 h

Test: Antiplatelet activity in human platelet-rich plasma assessed as inhibition of ADP-induced platelet aggregation
Assay type: functional, cell-free
Settings: not given

SMILES	IC50
CC(C)(C)c1ccccc1Oc1ncccc1Nc1nc(C(F)(F)F)c(-c2ccccc2)s1	5.2 µM
